From ChEMBL document CHEMBL3526121, “Pharmacokinetics, bioavailability, tissue distribution, excretion, and metabolite identification of methoxyflavones in Kaempferia parviflora extract in rats” (Drug Metab Dispos, 2012)

Experiments:
[1] = Drug excretion in Wistar rat urine at 750 mg/kg, po after 72 hrs by HPLC-UV analysis; type: ADME, organism-based; set-up: dose 750 mg/kg, route oral; conditions: in vivo
[2] = Drug excretion in Wistar rat urine at 750 mg/kg, po after 18 to 24 hrs by HPLC-UV analysis; type: ADME, organism-based; set-up: dose 750 mg/kg, route oral; conditions: in vivo
[3] = Drug metabolism in Wistar rat assessed as excretion of 7-methoxy-4-oxo-2-phenyl-4H-chromen-5-yl hydrogen sulfate in urine at 750 mg/kg, po by LC-MS and LC-MS/MS analysis; type: ADME, organism-based; set-up: dose 750 mg/kg, route oral; conditions: in vivo
[4] = Drug excretion in Wistar rat feces at 750 mg/kg, po after 12 to 18 hrs by HPLC-UV analysis; type: ADME, organism-based; set-up: dose 750 mg/kg, route oral; conditions: in vivo
[5] = AUC in Wistar rat at 250 mg/kg, po by HPLC analysis; type: ADME, organism-based; set-up: dose 250 mg/kg, route oral; conditions: plasma
[6] = AUC in Wistar rat at 250 mg/kg, iv by HPLC analysis; type: ADME, organism-based; set-up: dose 250 mg/kg, route intravenous; conditions: plasma
[7] = Half life in Wistar rat at 250 mg/kg, po by HPLC analysis; type: ADME, organism-based; set-up: dose 250 mg/kg, route oral; conditions: in vivo
[8] = Half life in Wistar rat at 250 mg/kg, iv by HPLC analysis; type: ADME, organism-based; set-up: dose 250 mg/kg, route intravenous; conditions: Wistar, in vivo
[9] = Elimination rate constant in Wistar rat at 250 mg/kg, po by HPLC analysis; type: ADME, organism-based; set-up: dose 250 mg/kg, route oral; conditions: in vivo, read-out: Ke (converted)
[10] = Elimination rate constant in Wistar rat at 250 mg/kg, iv by HPLC analysis; type: ADME, organism-based; set-up: dose 250 mg/kg, route intravenous; conditions: Wistar, in vivo, read-out: Ke (converted)
[11] = Clearance in Wistar rat at 250 mg/kg, po by HPLC analysis; type: ADME, organism-based; set-up: dose 250 mg/kg, route oral; conditions: in vivo
[12] = Clearance in Wistar rat at 250 mg/kg, iv by HPLC analysis; type: ADME, organism-based; set-up: dose 250 mg/kg, route intravenous; conditions: in vivo
[13] = Tmax in Wistar rat at 250 mg/kg, po by HPLC analysis; type: ADME, organism-based; set-up: dose 250 mg/kg, route oral; conditions: in vivo
[14] = Cmax in Wistar rat at 250 mg/kg, po by HPLC analysis; type: ADME, organism-based; set-up: dose 250 mg/kg, route oral; conditions: in vivo
Rattus norvegicus [15] = assay: Volume of distribution in Wistar rat at 250 mg/kg, po by HPLC analysis; type: ADME, organism-based; set-up: dose 250 mg/kg, route oral; conditions: in vivo
Rattus norvegicus [16] = assay: Absorption rate constant in Wistar rat at 250 mg/kg, po by HPLC analysis; type: ADME, organism-based; set-up: dose 250 mg/kg, route oral; conditions: in vivo
[17] = Oral bioavailability in Wistar rat at 250 mg/kg by HPLC analysis; type: ADME, organism-based; conditions: in vivo
Liver = assay: AUC (0.083 to 4 hrs) in Wistar rat liver at 750 mg/kg, po by LC-MS/MS analysis; type: ADME, organism-based; set-up: time 0.083-4 hr, dose 750 mg/kg, route oral; conditions: in vivo
Kidney = assay: AUC (0.083 to 4 hrs) in Wistar rat kidney at 750 mg/kg, po by LC-MS/MS analysis; type: ADME, organism-based; set-up: time 0.083-4 hr, dose 750 mg/kg, route oral; conditions: in vivo
Lung = assay: AUC (0.083 to 4 hrs) in Wistar rat lung at 750 mg/kg, po by LC-MS/MS analysis; type: ADME, organism-based; set-up: time upper 4 hr, time lower 0.083 hr, dose 750 mg/kg, route oral; conditions: in vivo
Brain = assay: AUC (0.083 to 4 hrs) in Wistar rat brain at 750 mg/kg, po by LC-MS/MS analysis; type: ADME, organism-based; set-up: time 0.083-4 hr, dose 750 mg/kg, route oral; conditions: in vivo
[18] = Cmax in Wistar rat liver at 750 mg/kg, po by LC-MS/MS analysis; type: ADME, organism-based; set-up: dose 750 mg/kg, route oral
[19] = Cmax in Wistar rat kidney at 750 mg/kg, po by LC-MS/MS analysis; type: ADME, organism-based; set-up: dose 750 mg/kg, route oral
[20] = Cmax in Wistar rat lung at 750 mg/kg, po by LC-MS/MS analysis; type: ADME, organism-based; set-up: dose 750 mg/kg, route oral
[21] = Cmax in Wistar rat brain at 750 mg/kg, po by LC-MS/MS analysis; type: ADME, organism-based; set-up: dose 750 mg/kg, route oral
[22] = Cmax in Wistar rat testes at 750 mg/kg, po by LC-MS/MS analysis; type: ADME, organism-based, Testis; set-up: dose 750 mg/kg, route oral
[23] = Tmax in Wistar rat liver at 750 mg/kg, po by LC-MS/MS analysis; type: ADME, organism-based; set-up: dose 750 mg/kg, route oral
[24] = Tmax in Wistar rat kidney at 750 mg/kg, po by LC-MS/MS analysis; type: ADME, organism-based; set-up: dose 750 mg/kg, route oral
[25] = Tmax in Wistar rat lung at 750 mg/kg, po by LC-MS/MS analysis; type: ADME, organism-based; set-up: dose 750 mg/kg, route oral
[26] = Tmax in Wistar rat brain at 750 mg/kg, po by LC-MS/MS analysis; type: ADME, organism-based; set-up: dose 750 mg/kg, route oral
[27] = Tmax in Wistar rat testes at 750 mg/kg, po by LC-MS/MS analysis; type: ADME, organism-based, Testis; set-up: dose 750 mg/kg, route oral
[28] = Drug metabolism in Wistar rat assessed as excretion of 5,7-dihydroxy-2-phenyl-4H-chromen-4-one in urine/feces at 750 mg/kg, po by LC-MS and LC-MS/MS analysis; type: ADME, organism-based; set-up: dose 750 mg/kg, route oral; conditions: in vivo
[29] = Drug excretion in Wistar rat urine at 750 mg/kg, po after 12 hrs by HPLC-UV analysis; type: ADME, organism-based; set-up: dose 750 mg/kg, route oral; conditions: in vivo
[30] = Drug excretion in Wistar rat feces at 750 mg/kg, po after 12 hrs by HPLC-UV analysis; type: ADME, organism-based; set-up: dose 750 mg/kg, route oral; conditions: in vivo
[31] = Drug metabolism in Wistar rat assessed as excretion of 2-phenyl-5-((2S,3R,4S,5S,6R)-3,4,5-trihydroxy-6-(hydroxymethyl)tetrahydro-2H-pyran-2-yloxy)-4H-chromen-4-one in urine at 750 mg/kg, po by LC-MS and LC-MS/MS analysis; type: ADME, organism-based; set-up: dose 750 mg/kg, route oral; conditions: in vivo
[32] = Drug excretion in Wistar rat urine at 750 mg/kg, po after up to 72 hrs by HPLC-UV analysis; type: ADME, organism-based; set-up: dose 750 mg/kg, route oral; conditions: read-out: Drug excretion
[33] = Drug excretion in Wistar rat feces at 750 mg/kg, po after up to 72 hrs by HPLC-UV analysis; type: ADME, organism-based; set-up: dose 750 mg/kg, route oral; conditions: faeces, read-out: Drug excretion
[34] = AUC (0.083 to 4 hrs) in Wistar rat testes at 750 mg/kg, po by LC-MS/MS analysis; type: ADME, organism-based, Testis; set-up: time 0.083-4 hr, dose 750 mg/kg, route oral; conditions: in vivo
[35] = Drug metabolism in Wistar rat urine/feces treated with 750 mg/kg, po of 5,7-dimethoxyflavone by LC-MS and LC-MS/MS analysis; type: ADME, organism-based; set-up: dose 750 mg/kg, route oral; conditions: in vivo
[36] = Drug metabolism in Wistar rat urine/feces treated with 750 mg/kg, po of 5,7,4'-trimethoxyflavone by LC-MS and LC-MS/MS analysis; type: ADME, organism-based; set-up: dose 750 mg/kg, route oral; conditions: in vivo
[37] = Drug metabolism in Wistar rat urine/feces treated with 750 mg/kg, po of 3,5,7,3',4'-pentamethoxyflavone by LC-MS and LC-MS/MS analysis; type: ADME, organism-based; set-up: dose 750 mg/kg, route oral; conditions: in vivo

COc1cc(OC)c2c(=O)cc(-c3ccccc3)oc2c1 [CHRYSIN DIMETHYL ETHER]
Drug excretion [1]: metabolite_not_detected
Drug excretion [2]: Active
Drug metabolism [3]: metabolite_detected
Drug excretion [4]: Active
AUC [5]: 7.01 µg·h/mL
AUC [6]: 233 µg·h/mL
half-life [7]: 5.85 h
half-life [8]: 3.75 h
k el [9]: 3.61e-05 s⁻¹
k el [10]: 8.89e-05 s⁻¹
CL/F [11]: 6.12 mL/min
clearance [12]: 0.133 mL/min
Tmax [13]: 0.76 h
Cmax [14]: 780 ng/mL
Vd (Rattus norvegicus [15]): 2957.53 mL
ka (Rattus norvegicus [16]): 8.69 h⁻¹
bioavailability [17]: 2.1%
AUC (Liver): 8.6 µg·h/g
AUC (Kidney): 2.51 µg·h/g
AUC (Lung): 2.17 µg·h/g
AUC (Brain): 1.91 µg·h/g
Cmax [18]: 3850 ng/g
Cmax [19]: 1330 ng/g
Cmax [20]: 2000 ng/g
Cmax [21]: 960 ng/g
Cmax [22]: 910 ng/g
Tmax [23]: 2.57 h
Tmax [24]: 3.43 h
Tmax [25]: 1.2 h
Tmax [26]: 3.14 h
Tmax [27]: 2.86 h
Drug metabolism [28]: metabolite_detected
Drug excretion [29]: Active
Drug excretion [30]: Active
Drug metabolism [31]: metabolite_detected
dose excreted at 72 h [32]: 0.96%
dose excreted at 72 h [33]: 3.1%
AUC [34]: 1.9 µg·h/g

O=c1cc(-c2ccccc2)oc2cc(O)cc(O)c12 [CHRYSIN]
Drug metabolism [35]: metabolite_detected

COc1cc(O)c2c(=O)cc(-c3ccc(O)cc3)oc2c1 [GENKWANIN]
Drug metabolism [36]: metabolite_detected

COc1cc(O)c2c(=O)c(O)c(-c3ccc(OC)c(O)c3)oc2c1 [OMBUINE]
Drug metabolism [37]: metabolite_detected
